In ChEMBL document CHEMBL5154647, “Discovery of seneciobipyrrolidine derivatives for the amelioration of glucose homeostasis disorders through 4E-BP1/Akt/AMPK signaling activation” (Eur J Med Chem, 2022):
Calls of active or inactive are those of the source. The calls are words filed in the database; no cut-off is given here.

Columns and labels:
[1] = target: T1, AMP-activated protein kinase, AMPK (Rattus norvegicus) (UniProt P54645+Q09137+P80386+P80385+Q9QZH4+Q6V7V4+D4A7E4); assay: Activation of AMPK in rat L6 myoblasts assessed as increase in AMPK phosphorylation at Thr172 at 25 uM measured after 30 mins by western blot analysis; format: cell-based; details: filed as activator
Pancreas = assay: Effect on 4E-BP1 in db/db mouse pancreas assessed as increase in 4E-BP1 protein level at 100 mg/kg, po bid administered for 21 days by immunohistochemical staining analysis; format: functional, organism-based; details: time 21.0 day
[2] = Oral bioavailability in Sprague-Dawley rat at 20 mg/kg measured upto 10 hrs by LC/MS/MS analysis; format: ADME, organism-based; details: in vivo
Mus musculus [3] = assay: Improvement in glucose tolerance in db/db mouse assessed as reduction in blood glucose level at 100 mg/kg, po measured after 20 days; format: functional, organism-based; details: time 20.0 day
Liver = assay: Effect on 4E-BP1 in db/db mouse liver assessed as increase in 4E-BP1 protein level at 100 mg/kg, po bid administered for 21 days by immunohistochemical staining analysis; format: functional, organism-based; details: time 21.0 day
L6 [4] = assay: Activation of Akt in rat L6 myoblasts assessed as increase in AKT phosphorylation at Ser473 at 25 uM measured after 30 mins by western blot analysis; format: cell-based; details: filed as activator
[5] = Cmax in Sprague-Dawley rat at 20 mg/kg, po measured upto 10 hrs by LC/MS/MS analysis; format: ADME, organism-based; design: time < 10 hrs, dose 20 mg/kg, route po; details: in vivo
L6 [6] = assay: Activation of Akt in rat L6 myoblasts assessed as increase in Akt protein level at 25 uM measured after 30 mins by western blot analysis; format: cell-based; details: filed as activator
[7] = Tmax in Sprague-Dawley rat at 20 mg/kg, po measured upto 10 hrs by LC/MS/MS analysis; format: ADME, organism-based; details: in vivo
L6 [8] = assay: Induction of glucose uptake in rat L6 myoblasts at 20 uM measured after 2 hrs by liquid scintillation counter; format: functional
L6 [9] = assay: Induction of glucose uptake in rat L6 myoblasts preincubated for 3 hrs with compound and in presence of 2-deoxyglucose measured after 1 hrs by DNTB reagent based colorimetric assay; format: functional, cell-based
[10] = Half life in Sprague-Dawley rat at 20 mg/kg, po measured upto 10 hrs by LC/MS/MS analysis; format: ADME, organism-based; details: in vivo
Mus musculus [11] = assay: Antidiabetic activity in db/db mouse assessed as reduction in blood glucose level at 100 mg/kg, po bid measured after 6 hrs; format: functional; design: scale not given: the % may be the effect or the level left
[12] = target: Eukaryotic translation initiation factor 4E-binding protein 1 (Rattus norvegicus) (UniProt Q62622); assay: Activation of 4E-BP1 in rat L6 myoblasts assessed as increase in 4E-BP1 protein level at 0.1 to 25 uM by western blot analysis; format: cell-based; details: filed as activator, dose 0.1-25 µM, DDE = dose-dependent effect
Mus musculus [13] = assay: Antidiabetic activity in db/db mouse assessed as reduction in random blood glucose level at 75 mg/kg, po bid measured up to 21 days; format: functional; design: scale not given: the % may be the effect or the level left; details: time <= 21 day
[14] = Toxicity in db/db mouse assessed as reduction in total cholesterol at 75 to 100 mg/kg, po administered for 21 days; format: organism-based; details: in vivo, 504 h, dose 75-100 mg/kg, time 21 day
Mus musculus [15] = assay: Improvement in glucose tolerance in db/db mouse assessed as reduction in blood glucose level at 300 mg/kg, po measured after 20 days; format: functional, organism-based; details: time 20.0 day
L6 [16] = assay: Activation of Akt in rat L6 myoblasts assessed as increase in AKT phosphorylation at Ser473 at 0.1 to 25 uM by western blot analysis; format: cell-based; details: filed as activator, dose 0.1-25 µM, DDE = dose-dependent effect
[17] = target: T1, AMP-activated protein kinase, AMPK (Rattus norvegicus); assay: Time dependent activation of AMPK in rat L6 myoblasts assessed as increase in AMPK phosphorylation at Thr172 at 10 to 180 min by western blot analysis; format: cell-based; details: filed as activator, time 10-180 min, TDE = time-dependent effect
Muscle tissue = assay: Effect on 4E-BP1 in db/db mouse muscle tissue assessed as increase in 4E-BP1 protein level at 100 mg/kg, po bid administered for 21 days by immunohistochemical staining analysis; format: functional, organism-based; details: time 21.0 day
[18] = Toxicity in db/db mouse liver assessed as reduction of fat accumulation in liver at 100 mg/kg, po bid administered for 21 days by H and E staining based microscopic analysis; format: organism-based; details: in vivo, 504 h, time 21 day
L6 [19] = assay: Time dependent activation of Akt in rat L6 myoblasts assessed as increase in AKT phosphorylation at Ser473 at 10 to 180 min by western blot analysis; format: cell-based; details: filed as activator, time 10-180 min, TDE = time-dependent effect
[20] = target: Eukaryotic translation initiation factor 4E-binding protein 1 (Rattus norvegicus) (UniProt Q62622); assay: Time dependent activation of 4E-BP1 in rat L6 myoblasts assessed as increase in 4E-BP1 protein level at 10 to 180 min by western blot analysis; format: cell-based; details: filed as activator, time 10-180 min, TDE = time-dependent effect
[21] = Toxicity in db/db mouse assessed as decrease in body weight at 100 mg/kg, po administered for 21 days; format: organism-based; details: in vivo, 504 h, time 21 day
Mus musculus [22] = assay: Antidiabetic activity in db/db mouse assessed as reduction in random blood glucose level at 100 mg/kg, po bid measured up to 21 days; format: functional; design: scale not given: the % may be the effect or the level left; details: time <= 21 day
[23] = Half life in Sprague-Dawley rat at 5 mg/kg, iv measured upto 24 hrs by LC/MS/MS analysis; format: ADME, organism-based; details: in vivo
[24] = Cmax in Sprague-Dawley rat at 5 mg/kg, iv measured upto 24 hrs by LC/MS/MS analysis; format: ADME, organism-based; design: dose 5 mg/kg, time < 24 hrs, route iv; details: in vivo
[25] = target: T1, AMP-activated protein kinase, AMPK (Rattus norvegicus); assay: Activation of AMPK in rat L6 myoblasts assessed as increase in AMPK phosphorylation at Thr172 at 0.1 to 25 uM by western blot analysis; format: cell-based; details: filed as activator, dose 0.1-25 µM, DDE = dose-dependent effect
[26] = Toxicity in db/db mouse assessed as reduction in triglyceride at 100 mg/kg, po administered for 21 days; format: organism-based; details: in vivo, 504 h, time 21 day
[27] = target: Eukaryotic translation initiation factor 4E-binding protein 1 (Rattus norvegicus) (UniProt Q62622); assay: Activation of 4E-BP1 in rat L6 myoblasts assessed as increase in 4E-BP1 protein level at 25 uM measured after 30 mins by western blot analysis; format: cell-based; details: filed as activator
[28] = target: T1, AMP-activated protein kinase, AMPK (Rattus norvegicus); assay: Activation of AMPK in rat L6 myoblasts assessed as increase in AMPK protein level at 25 uM measured after 30 mins by western blot analysis; format: cell-based; details: filed as activator
Mus musculus [29] = assay: Antidiabetic activity in db/db mouse assessed as reduction in fasting blood glucose level at 100 mg/kg, po bid measured up to 21 days; format: functional; design: scale not given: the % may be the effect or the level left; details: time <= 21 day
[30] = Toxicity in db/db mouse assessed as effect on muscle tissue morphology at 100 mg/kg, po bid administered for 21 days by H and E staining based microscopic analysis; format: organism-based; details: in vivo, 504 h, time 21 day
[31] = Toxicity in db/db mouse assessed as reduction in triglyceride at 75 mg/kg, po administered for 21 days; format: organism-based; details: in vivo, 504 h, time 21 day
[32] = Toxicity in db/db mouse assessed as effect on pancreas morphology at 100 mg/kg, po bid administered for 21 days by H and E staining based microscopic analysis; format: organism-based; details: in vivo, 504 h, time 21 day
[33] = AUC (0 to t) in Sprague-Dawley rat at 20 mg/kg, po measured upto 10 hrs by LC/MS/MS analysis; format: ADME, organism-based; design: time < 10 hrs, dose 20 mg/kg, route po; details: in vivo
[34] = Toxicity in db/db mouse assessed as increase in body weight at 75 mg/kg, po administered for 21 days; format: organism-based; details: in vivo, 504 h, time 21 day
L6 [35] = assay: Induction of glucose uptake in rat L6 myoblasts assessed as 2-DG concentration at 25 uM preincubated for 3 hrs and in presence of 2-deoxyglucose measured after 1 hrs by DNTB reagent based colorimetric assay; format: functional; details: time 4 hrs
Mus musculus [36] = assay: Antidiabetic activity in db/db mouse assessed as reduction in fasting blood glucose level at 75 mg/kg, po bid measured up to 21 days; format: functional; design: scale not given: the % may be the effect or the level left; details: time <= 21 day
[37] = AUC (0 to t) in Sprague-Dawley rat at 5 mg/kg, iv measured upto 24 hrs by LC/MS/MS analysis; format: ADME, organism-based; design: dose 5 mg/kg, time < 24 hrs, route iv; details: in vivo
[38] = Toxicity in db/db mouse liver assessed as reduction of fat accumulation in liver at 300 mg/kg, po bid administered for 21 days by H and E staining based microscopic analysis; format: organism-based; details: in vivo, 504 h, time 21 day
[39] = Toxicity in db/db mouse assessed as effect on muscle tissue morphology at 300 mg/kg, po bid administered for 21 days by H and E staining based microscopic analysis; format: organism-based; details: in vivo, 504 h, time 21 day
[40] = Toxicity in db/db mouse assessed as reduction in total cholesterol at 300 mg/kg, po administered for 21 days; format: organism-based; details: in vivo, 504 h, time 21 day
[41] = Toxicity in db/db mouse assessed as increase in body weight at 300 mg/kg, po administered for 21 days; format: organism-based; details: in vivo, 504 h, time 21 day
Mus musculus [42] = assay: Antidiabetic activity in db/db mouse assessed as reduction in random blood glucose level at 300 mg/kg, po bid measured up to 21 days; format: functional; design: scale not given: the % may be the effect or the level left; details: time <= 21 day
Mus musculus [43] = assay: Antidiabetic activity in db/db mouse assessed as reduction in fasting blood glucose level at 300 mg/kg, po bid measured up to 21 days; format: functional; design: scale not given: the % may be the effect or the level left; details: time <= 21 day
[44] = Toxicity in db/db mouse assessed as reduction in triglyceride at 300 mg/kg, po administered for 21 days; format: organism-based; details: in vivo, 504 h, time 21 day
Mus musculus [45] = assay: Antidiabetic activity in db/db mouse assessed as reduction in blood glucose level at 300 mg/kg, po bid measured after 6 hrs; format: functional; design: scale not given: the % may be the effect or the level left
[46] = Toxicity in db/db mouse assessed as effect on pancreas morphology at 300 mg/kg, po bid administered for 21 days by H and E staining based microscopic analysis; format: organism-based; details: in vivo, 504 h, time 21 day

Sequence of Eukaryotic translation initiation factor 4E-binding protein 1 (Rattus norvegicus) (Q62622 whole entry): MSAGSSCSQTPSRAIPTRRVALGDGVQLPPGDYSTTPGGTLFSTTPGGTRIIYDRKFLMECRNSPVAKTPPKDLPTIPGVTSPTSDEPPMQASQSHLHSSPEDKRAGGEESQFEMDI

COc1ccc2c(c1)[C@H]1[C@H](CCN1CCc1ccc(Cl)cc1)[C@H]1CCCN21 (racemic)
Activity [1]: Active
Activity (Pancreas): Active
bioavailability [2]: 19.9%
Activity (Mus musculus [3]): Active
Activity (Liver): Active
Activity (L6 [4]): Active
Cmax [5]: 141 ng/mL
Activity (L6 [6]): Active
Tmax [7]: 0.5 h
Activity (L6 [8]): 215.6%
EC50 (L6 [9]): 2700 nM
half-life [10]: 12.4 h
Activity (Mus musculus [11]): 38.1%
Activity [12]: Dde
Activity (Mus musculus [13]): 77.2%
Activity [14]: Toxic
Activity (Mus musculus [15]): Active
Activity (L6 [16]): Dde
Activity [17]: Tde
Activity (Muscle tissue): Active
Activity [18]: Toxic
Activity (L6 [19]): Tde
Activity [20]: Tde
Activity [21]: Toxic
Activity (Mus musculus [22]): 79%
half-life [23]: 3.9 h
Cmax [24]: 542 ng/mL
Activity [25]: Dde
Activity [26]: Toxic
fold change (FC) [27]: 2
Activity [28]: Active
Activity (Mus musculus [29]): 62.1%
Activity [30]: Non-Toxic
Activity [31]: Toxic
Activity [32]: Non-Toxic
AUC(0-t) at 10 h [33]: 469 ng·h/mL
Activity [34]: Non-Toxic
Activity (L6 [35]): 81.9 pmol/µL
Activity (Mus musculus [36]): 65.5%
AUC(0-t) at 24 h [37]: 588 ng·h/mL

CN(C)C(=N)NC(=N)N [METFORMIN]
Activity [38]: Toxic
Activity [39]: Non-Toxic
Activity [40]: Toxic
Activity [41]: Non-Toxic
Activity (Mus musculus [42]): 40.3%
Activity (Mus musculus [43]): 26.6%
Activity [44]: Toxic
Activity (Mus musculus [45]): 49.7%
Activity [46]: Non-Toxic
